Data as given in patent US20140303092A1 (CHIMERIX, INC., priority 2011, published 2014).

Experiment: Study HDP-CDV-201: safety and tolerability (adverse events, laboratory abnormalities, discontinuations)
Assay type: in vivo, human (adult allogeneic HSCT recipients)
Conditions: Cohort 4A
Experimental: Clinical Studies of HDP-CDV were performed and described in detail in the following Examples. For example, HDP-CDV-201 is a placebo-controlled, dose-escalating trial in HSCT CMV (R+) recipients, evaluating the ability of HDP-CDV to prevent or control CMV infection was carried out. Five cohorts were established in which participants or subjects received either placebo or the HDP-CDV orally, in doses ranging from 40 mg weekly (QW) to 200 mg twice weekly (BIW). Subjects who were post-HSCT were enrolled at the time of engraftment and randomized to HDP-CDV or placebo (3 to 1 ratio) and received blinded therapy until approximately 100 day post-transplantation. HDP-CDV doses were 40 mg QW, 100 mg QW, 200 mg QW, 200 mg BIW and 100 mg BIW. Escalation to the next dose was decided by the data monitoring committee after review of the safety data from the previous Cohort. Subjects who developed CMV disease or CMV infection requiring pre-emptive therapy with local standard of care were discontinued from blinded therapy and followed for 4 weeks. Subjects who completed treatment with blinded therapy were followed for 8 weeks post-therapy.
Data from Study HDP-CDV-201 also provided characterization of the safety and tolerability profile of HDP-CDV when administered for the prevention or control of CMV infection in high risk (R^+) post-HSCT adult subjects.
The Safety population (SAFETY) included all randomized subjects who took at least one dose of study treatment. This population was used to summarize safety outcomes based on the treatment actually received, in cases where a subject was treated contrary to the randomization schedule.
The safety and tolerability profile of HDP-CDV, including subject demographics and Baseline characteristics; the AE profile; and laboratory abnormalities of interest were analyzed in the cohorts followed in this investigation.
Subjects completing the treatment period received a full course of study medication; those completing the entire study attended visits through 8 weeks of follow up. Subjects who discontinued treatment may have done so for protocol specified reasons (e.g. development of clinically significant CMV infection requiring preemptive treatment with excluded anti-CMV medications) or for other reasons (e.g., withdrawal, adverse events, loss to follow-up). The disposition of subjects in Study HDP-CDV-201 during the double-blind, placebo-controlled treatment period (through Week 11) is listed by dosing Cohort in TABLE 23.
Adverse events were examined by severity to ensure that all safety signals were identified in this study population. Because of the frequency of events in HSCT recipients, particular attention was given to evaluation of Grade 3 […], 4 (severe), and 5 (fatal) adverse events.
Only those preferred terms for which at least one Grade 3 or higher event was experienced in any treatment group are listed. Cytomegalovirus-related AEs are excluded from this analysis.
HDP-CDV is a lipid conjugate of CDV. Because CDV is known to have adverse effects on renal function and bone marrow, decreased GFR and persistent neutropenia were identified as AEs of special interest. Key renal and hematological (TABLE 30) laboratory parameters were measured and listed below by Study HDP-CDV-201 treatment groups. TABLE 30 includes abnormal levels of serum creatinine, neutrophils, platelets, WBCs, and hemoglobin and includes data at Screening and during the treatment period.
A common metric for unit based dosing of medications is by weight (mg/kg). When the distribution of weights was examined for all subjects participating in the study, the median was 78 kg and the lower 25th percentile weight was approximately 65 kg, which translates to a cut-off of ˜3 mg/kg for a 200 mg total weekly dose. Based upon this approach, a cut-off of 3 mg/kg was used to assess the frequency of diarrhea and associated GI AEs reported for the subjects in Cohorts 3 or 4a (TABLE 40).

CCCCCCCCCCCCCCCCOCCCOP(=O)(O)COC(CO)Cn1ccc(N)nc1=O (stereo not drawn) [HDP-CDV]
Intensity of Gastrointestinal AEs, Grade 1, subjects (100 mg BIW): 12 (24.0%) | Intensity of Gastrointestinal AEs, Grade 2, subjects (100 mg BIW): 17 (34.0%) | Intensity of Gastrointestinal AEs, Grade 3, subjects (100 mg BIW): 10 (20.0%) | Intensity of Gastrointestinal AEs, Grade 4, subjects (100 mg BIW): 1 (2.0%) | Intensity of Gastrointestinal AEs, Grade 5, subjects (100 mg BIW): 0 | Serum ALT level, Median fold increase from Baseline at Follow-up Week 1 (100 mg BIW): 1.52 fold | Serum ALT level, Median fold increase from Baseline at Follow-up Week 4 (100 mg BIW): 1.11 fold | Serum ALT level, Peak Median fold increase from Baseline (100 mg BIW): 2.86 fold | Subjects completed study (100 mg BIW): 25 (50.0%) n (%) | TEAE Abdominal pain Grade 2, subjects (100 mg BIW): 1 (2.0%) | TEAE Abdominal pain Grade 3, subjects (100 mg BIW): 1 (2.0%) | TEAE Abdominal pain Grade 4, subjects (100 mg BIW): 0 | TEAE Abdominal pain Grade 5, subjects (100 mg BIW): 0 | TEAE Abdominal pain Overall Frequency, subjects (100 mg BIW): 13 (26.0%) | TEAE Diarrhea Grade 2, subjects (100 mg BIW): 6 (12.0%) | TEAE Diarrhea Grade 3, subjects (100 mg BIW): 9 (18.0%) | TEAE Diarrhea Grade 4, subjects (100 mg BIW): 0 | TEAE Diarrhea Grade 5, subjects (100 mg BIW): 0 | TEAE Diarrhea Overall Frequency, subjects (100 mg BIW): 26 (52.0%) | TEAE Hypokalaemia Grade 2, subjects (100 mg BIW): 2 (4.0%) | TEAE Hypokalaemia Grade 3, subjects (100 mg BIW): 2 (4.0%) | TEAE Hypokalaemia Grade 4, subjects (100 mg BIW): 0 | TEAE Hypokalaemia Grade 5, subjects (100 mg BIW): 0 | TEAE Hypokalaemia, subjects (100 mg BIW): 8 (16.0%) | TEAE Nausea Grade 2, subjects (100 mg BIW): 9 (18.0%) | TEAE Nausea Grade 3, subjects (100 mg BIW): 2 (4.0%) | TEAE Nausea Grade 4, subjects (100 mg BIW): 0 | TEAE Nausea Grade 5, subjects (100 mg BIW): 0 | TEAE Nausea Overall Frequency, subjects (100 mg BIW): 17 (34.0%) | TEAE Vomiting Grade 2, subjects (100 mg BIW): 8 (16.0%) | TEAE Vomiting Grade 3, subjects (100 mg BIW): 2 (4.0%) | TEAE Vomiting Grade 4, subjects (100 mg BIW): 0 | TEAE Vomiting Grade 5, subjects (100 mg BIW): 0 | TEAE Vomiting Overall Frequency, subjects (100 mg BIW): 22 (44.0%) | Total Bilirubin (Screening) >1-[…] ULN, subjects (100 mg BIW): 3 (6.5%) | Total Bilirubin (Screening) >1.5-3 × ULN, subjects (100 mg BIW): 2 (4.3%) | Total Bilirubin (Screening) >3-10 × ULN, subjects (100 mg BIW): 0 | Total Bilirubin (Screening) >10 × ULN, subjects (100 mg BIW): 0 | Total Bilirubin (any time during therapy) >1-[…] ULN, subjects (100 mg BIW): 5 (10.0%) | Total Bilirubin (any time during therapy) >1.5-3 × ULN, subjects (100 mg BIW): 3 (6.0%) | Total Bilirubin (any time during therapy) >3-10 × ULN, subjects (100 mg BIW): 1 (2.0%) | Total Bilirubin (any time during therapy) >10 × ULN, subjects (100 mg BIW): 0 | excess of subjects with severe diarrhea as compared to placebo (100 mg BIW): 13% | incidence of diarrhea (100 mg BIW): 52% | TEAE Abdominal pain Grade 2, subjects (100 mg BIW >3 mg/k): 0 | TEAE Abdominal pain Grade 3, subjects (100 mg BIW >3 mg/k): 0 | TEAE Abdominal pain Grade 4, subjects (100 mg BIW >3 mg/k): 0 | TEAE Abdominal pain Grade 5, subjects (100 mg BIW >3 mg/k): 0 | TEAE Abdominal pain Overall Frequency, subjects (100 mg BIW >3 mg/k): 4 (40%) | TEAE Diarrhea Grade 2, subjects (100 mg BIW >3 mg/k): 3 (30%) | TEAE Diarrhea Grade 3, subjects (100 mg BIW >3 mg/k): 3 (30%) | TEAE Diarrhea Grade 4, subjects (100 mg BIW >3 mg/k): 0 | TEAE Diarrhea Grade 5, subjects (100 mg BIW >3 mg/k): 0 | TEAE Diarrhea Overall Frequency, subjects (100 mg BIW >3 mg/k): 6 (60%) | TEAE Hypokalaemia Grade 2, subjects (100 mg BIW >3 mg/k): 1 (10%) | TEAE Hypokalaemia Grade 3, subjects (100 mg BIW >3 mg/k): 2 (20.0%) | TEAE Hypokalaemia Grade 4, subjects (100 mg BIW >3 mg/k): 0 | TEAE Hypokalaemia Grade 5, subjects (100 mg BIW >3 mg/k): 0 | TEAE Hypokalaemia, subjects (100 mg BIW >3 mg/k): 3 (30%) | TEAE Nausea Grade 2, subjects (100 mg BIW >3 mg/k): 3 (30%) | TEAE Nausea Grade 3, subjects (100 mg BIW >3 mg/k): 1 (10%) | TEAE Nausea Grade 4, subjects (100 mg BIW >3 mg/k): 0 | TEAE Nausea Grade 5, subjects (100 mg BIW >3 mg/k): 0 | TEAE Nausea Overall Frequency, subjects (100 mg BIW >3 mg/k): 4 (40%) | TEAE Vomiting Grade 2, subjects (100 mg BIW >3 mg/k): 4 (40.0%) | TEAE Vomiting Grade 3, subjects (100 mg BIW >3 mg/k): 1 (10.0%) | TEAE Vomiting Grade 4, subjects (100 mg BIW >3 mg/k): 0 | TEAE Vomiting Grade 5, subjects (100 mg BIW >3 mg/k): 0 | TEAE Vomiting Overall Frequency, subjects (100 mg BIW >3 mg/k): 6 (60%) | TEAE Abdominal pain Grade 2, subjects (100 mg BIW ≦3 mg/kg): 1 (2.5%) | TEAE Abdominal pain Grade 3, subjects (100 mg BIW ≦3 mg/kg): 1 (2.5%) | TEAE Abdominal pain Grade 4, subjects (100 mg BIW ≦3 mg/kg): 0 | TEAE Abdominal pain Grade 5, subjects (100 mg BIW ≦3 mg/kg): 0 | TEAE Abdominal pain Overall Frequency, subjects (100 mg BIW ≦3 mg/kg): 9 (22.5%) | TEAE Diarrhea Grade 2, subjects (100 mg BIW ≦3 mg/kg): 3 (7.5%) | TEAE Diarrhea Grade 3, subjects (100 mg BIW ≦3 mg/kg): 6 (15%) | TEAE Diarrhea Grade 4, subjects (100 mg BIW ≦3 mg/kg): 0 | TEAE Diarrhea Grade 5, subjects (100 mg BIW ≦3 mg/kg): 0 | TEAE Diarrhea Overall Frequency, subjects (100 mg BIW ≦3 mg/kg): 20 (50%)^ | TEAE Hypokalaemia Grade 2, subjects (100 mg BIW ≦3 mg/kg): 1 (2.5%) | TEAE Hypokalaemia Grade 3, subjects (100 mg BIW ≦3 mg/kg): 0 | TEAE Hypokalaemia Grade 4, subjects (100 mg BIW ≦3 mg/kg): 0 | TEAE Hypokalaemia Grade 5, subjects (100 mg BIW ≦3 mg/kg): 0 | TEAE Hypokalaemia, subjects (100 mg BIW ≦3 mg/kg): 5 (12.5%) | TEAE Nausea Grade 2, subjects (100 mg BIW ≦3 mg/kg): 6 (15%) | TEAE Nausea Grade 3, subjects (100 mg BIW ≦3 mg/kg): 1 (2.5%) | TEAE Nausea Grade 4, subjects (100 mg BIW ≦3 mg/kg): 0 | TEAE Nausea Grade 5, subjects (100 mg BIW ≦3 mg/kg): 0 | TEAE Nausea Overall Frequency, subjects (100 mg BIW ≦3 mg/kg): 13 (32.5%) | TEAE Vomiting Grade 2, subjects (100 mg BIW ≦3 mg/kg): 4 (10%) | TEAE Vomiting Grade 3, subjects (100 mg BIW ≦3 mg/kg): 1 (2.5%) | TEAE Vomiting Grade 4, subjects (100 mg BIW ≦3 mg/kg): 0 | TEAE Vomiting Grade 5, subjects (100 mg BIW ≦3 mg/kg): 0 | TEAE Vomiting Overall Frequency, subjects (100 mg BIW ≦3 mg/kg): 16 (40%)^ | Abdominal pain leading to study drug withdrawal (100 mg BIW, N = 50): 1 (2.0%) | All AEs leading to withdrawal (100 mg BIW, N = 50): 18 (36.0%) | Diarrhoea leading to study drug withdrawal (100 mg BIW, N = 50): 2 (4.0%) | Dyspepsia leading to study drug withdrawal (100 mg BIW, N = 50): 0% | Nausea leading to study drug withdrawal (100 mg BIW, N = 50): 1 (2.0%) | TEAE ALT increased (100 mg BIW, N = 50): 9 (18.0%) n (%) | TEAE AST increased (100 mg BIW, N = 50): 5 (10.0%) n (%) | TEAE Abdominal pain (100 mg BIW, N = 50): 13 (26.0%) n (%) | TEAE Abdominal pain, Upper (100 mg BIW, N = 50): 2 (4.0%) n (%) | TEAE Acute GVHD (100 mg BIW, N = 50): 32 (64.0%) n (%) | TEAE Acute Myeloid Leukemia recurrent (100 mg BIW, N = 50): 3 (6.0%) n (%) | TEAE Acute Renal Failure (100 mg BIW, N = 50): 1 (2.0%) n (%) | TEAE Anxiety (100 mg BIW, N = 50): 3 (6.0%) n (%) | TEAE Arthralgias (100 mg BIW, N = 50): 3 (6.0%) n (%) | TEAE Back Pain (100 mg BIW, N = 50): 4 (8.0%) n (%) | TEAE Blood lactate dehydrogenase increased (100 mg BIW, N = 50): 4 (8.0%) n (%) | TEAE Creatinine increased (100 mg BIW, N = 50): 7 (14.0%) n (%)
